pIC50: −log10 of the molar value.
What was measured:
[1] = target: T1, Protein arginine N-methyltransferase 7 (Homo sapiens, UniProt Q9NVM4); experiment: Inhibition of human recombinant His-tagged PRMT7 extracted from Escherichia coli BL21 (DE3)
T1 sequence (Q9NVM4 whole entry): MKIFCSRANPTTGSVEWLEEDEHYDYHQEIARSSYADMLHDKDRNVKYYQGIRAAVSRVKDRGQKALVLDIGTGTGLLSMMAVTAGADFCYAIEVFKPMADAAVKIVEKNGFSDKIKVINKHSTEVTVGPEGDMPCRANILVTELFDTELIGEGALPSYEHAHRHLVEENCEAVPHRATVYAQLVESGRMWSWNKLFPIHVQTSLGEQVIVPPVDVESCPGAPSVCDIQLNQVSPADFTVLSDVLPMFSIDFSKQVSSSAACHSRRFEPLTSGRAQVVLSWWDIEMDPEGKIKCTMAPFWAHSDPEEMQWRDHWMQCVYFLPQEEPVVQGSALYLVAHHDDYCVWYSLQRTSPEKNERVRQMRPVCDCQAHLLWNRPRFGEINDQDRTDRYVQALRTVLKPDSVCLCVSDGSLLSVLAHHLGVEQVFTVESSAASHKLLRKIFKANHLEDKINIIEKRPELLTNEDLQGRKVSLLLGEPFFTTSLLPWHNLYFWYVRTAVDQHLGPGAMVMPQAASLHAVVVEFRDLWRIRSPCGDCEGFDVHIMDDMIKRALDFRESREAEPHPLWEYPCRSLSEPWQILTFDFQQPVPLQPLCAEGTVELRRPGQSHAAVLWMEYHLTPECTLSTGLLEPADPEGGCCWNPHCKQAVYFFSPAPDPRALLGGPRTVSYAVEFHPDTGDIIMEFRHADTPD

HepG2 = experiment: Antiproliferative activity against human HepG2 cells assessed as reduction in cell viability by MTT assay; format: functional, cell-based
[2] = target: T1, Protein arginine N-methyltransferase 7; experiment: Inhibition of human PRMT7 in HEK293T cells assessed as reduction in HSP70 methylation; format: cell-based
[3] = target: T1, Protein arginine N-methyltransferase 7; experiment: Inhibition of human PRMT7 in HCT-116 cells assessed as reduction in HSP70 methylation; format: cell-based
[4] = Antiproliferative activity against human MEF cells assessed as reduction in cell viability by MTT assay; format: functional, cell-based
MCF7 = experiment: Antiproliferative activity against human MCF7 cells assessed as reduction in cell viability by MTT assay; format: functional, cell-based
KB = experiment: Antiproliferative activity against human KB cells assessed as reduction in cell viability by MTT assay; format: functional, cell-based
[5] = target: T1, Protein arginine N-methyltransferase 7; experiment: Inhibition of full length human recombinant PRMT7 extracted from Sf9 cells using […] as substrate incubated for 1 hr by TopCount scintillation proximity assay; format: cell-free
[6] = target: T1, Protein arginine N-methyltransferase 7; experiment: Inhibition of human PRMT7
[7] = target: Protein arginine N-methyltransferase 5 (Homo sapiens, UniProt O14744); experiment: Inhibition of human PRMT5
Sequence of Protein arginine N-methyltransferase 5 (O14744 whole entry): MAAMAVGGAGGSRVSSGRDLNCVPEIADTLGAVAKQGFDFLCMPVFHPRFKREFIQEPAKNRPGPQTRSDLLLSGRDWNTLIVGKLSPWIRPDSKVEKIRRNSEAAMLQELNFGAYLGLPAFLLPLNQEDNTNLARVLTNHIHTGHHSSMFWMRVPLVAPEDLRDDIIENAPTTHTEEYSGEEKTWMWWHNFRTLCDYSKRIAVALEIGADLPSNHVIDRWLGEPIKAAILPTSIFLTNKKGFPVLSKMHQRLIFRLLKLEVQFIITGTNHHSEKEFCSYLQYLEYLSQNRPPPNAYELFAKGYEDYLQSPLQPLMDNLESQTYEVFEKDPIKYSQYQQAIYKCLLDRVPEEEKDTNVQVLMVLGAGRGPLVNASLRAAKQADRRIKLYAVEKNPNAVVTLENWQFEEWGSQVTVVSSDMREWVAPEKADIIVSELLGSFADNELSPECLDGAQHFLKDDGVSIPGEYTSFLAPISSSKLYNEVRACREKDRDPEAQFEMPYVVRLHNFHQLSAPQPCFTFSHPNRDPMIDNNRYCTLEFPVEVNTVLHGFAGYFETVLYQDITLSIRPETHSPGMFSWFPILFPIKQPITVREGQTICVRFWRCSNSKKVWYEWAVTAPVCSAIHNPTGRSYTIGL

Q: With C/N=C(\N)N/N=C(\C)c1ccc2oc3ccc(/C(C)=N/N/C(N)=N/C)cc3c2c1 as the compound, how does the pIC50 [1] read?
A: 4.63

Q: With CC1=C(C)C(=O)C(C(C)(C)CC(=O)N(CCCCSC[C@H]2O[C@@H](n3cnc4c(N)ncnc43)[C@H](O)[C@@H]2O)Cc2cccc(-c3ccc(Cl)cc3)c2)=C(C)C1=O as the compound, how does the pIC50 (HepG2) read?
A: 5.66

Q: And the pIC50 [2]?
A: 5.62

Q: And the pIC50 [3]?
A: 5.62

Q: And the pIC50 [4]?
A: 4.55

Q: And the pIC50 (MCF7)?
A: 5.66

Q: And the pIC50 (KB)?
A: 5.66

Q: With Nc1ncnc2c1ncn2[C@@H]1O[C@H](CSCCCCNCc2cccc(-c3ccc(Cl)cc3)c2)[C@@H](O)[C@H]1O as the compound, how does the pIC50 [5] read?
A: 5.60

Q: Which results are given for COc1cc(-c2ncc(F)c(Nc3ccc4nc(C)cc(N)c4c3)n2)cc(OC)c1OC?
A: pIC50 [6]: 5.30; pIC50 [7]: 4.30
